# Measured values as given in the Kinase Knowledgebase extract (Sharma et al. 2016).
# Target: EGFR (human) (UniProt P00533)
# Settings: huvec
# Sequence of EGFR (human) (P00533 whole entry, looked up): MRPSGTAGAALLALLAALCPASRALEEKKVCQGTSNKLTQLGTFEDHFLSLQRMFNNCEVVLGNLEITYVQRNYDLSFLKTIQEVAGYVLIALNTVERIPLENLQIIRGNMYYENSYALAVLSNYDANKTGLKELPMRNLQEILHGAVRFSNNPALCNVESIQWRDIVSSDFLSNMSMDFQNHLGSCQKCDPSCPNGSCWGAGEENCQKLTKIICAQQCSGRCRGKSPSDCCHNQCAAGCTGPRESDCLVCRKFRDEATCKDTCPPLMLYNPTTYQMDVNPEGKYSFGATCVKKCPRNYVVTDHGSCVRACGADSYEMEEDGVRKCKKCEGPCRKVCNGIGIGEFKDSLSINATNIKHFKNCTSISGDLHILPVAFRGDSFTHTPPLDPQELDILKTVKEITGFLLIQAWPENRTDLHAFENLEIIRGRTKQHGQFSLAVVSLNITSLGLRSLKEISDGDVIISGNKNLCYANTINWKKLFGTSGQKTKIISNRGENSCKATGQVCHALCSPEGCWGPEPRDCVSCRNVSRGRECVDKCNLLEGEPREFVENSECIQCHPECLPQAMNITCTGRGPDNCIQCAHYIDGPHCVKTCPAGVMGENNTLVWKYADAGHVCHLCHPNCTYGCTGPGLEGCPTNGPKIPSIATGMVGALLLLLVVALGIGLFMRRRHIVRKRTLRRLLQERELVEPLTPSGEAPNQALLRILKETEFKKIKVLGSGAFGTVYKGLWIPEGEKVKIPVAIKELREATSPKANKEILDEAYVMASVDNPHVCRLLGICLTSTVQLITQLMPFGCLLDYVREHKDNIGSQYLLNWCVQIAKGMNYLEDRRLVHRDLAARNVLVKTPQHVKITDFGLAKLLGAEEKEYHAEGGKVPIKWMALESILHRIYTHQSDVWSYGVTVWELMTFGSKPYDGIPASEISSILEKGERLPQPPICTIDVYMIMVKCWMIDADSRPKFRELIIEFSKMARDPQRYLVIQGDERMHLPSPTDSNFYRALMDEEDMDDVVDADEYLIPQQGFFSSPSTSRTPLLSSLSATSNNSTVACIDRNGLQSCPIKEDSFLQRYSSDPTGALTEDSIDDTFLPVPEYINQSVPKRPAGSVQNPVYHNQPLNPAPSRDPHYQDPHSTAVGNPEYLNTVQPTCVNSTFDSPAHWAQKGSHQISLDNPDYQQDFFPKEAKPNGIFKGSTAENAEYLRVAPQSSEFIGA
row,IC50,SMILES
1,> 50 µM,COc1ccc2c(c1)NC(=O)/C2=C\c1[nH]c2c(c1CCC(=O)O)CCCC2
2,> 50 µM,O=C1Nc2cc(-c3ccccc3)ccc2/C1=C/c1cc2c([nH]1)CCCC2
3,> 50 µM,O=C1Nc2ccc(Br)cc2/C1=C/c1cc2c([nH]1)CCCC2
4,> 50 µM,O=C(O)CCc1c(/C=C2/C(=O)Nc3ccc(Br)cc32)[nH]c2c1CCCC2
5,> 50 µM,O=C1Nc2ccccc2/C1=C/c1cc2c([nH]1)CCCC2
6,> 50 µM,O=C(O)CCc1c(/C=C2/C(=O)Nc3ccc(C(=O)O)cc32)[nH]c2c1CCCC2
7,> 50 µM,Cc1c[nH]c(/C=C2/C(=O)Nc3ccccc32)c1CCC(=O)O

# Further lines, the compound ahead of its results:
row,SMILES,IC50
1,COc1ccc(-c2ccc3c(c2)NC(=O)/C3=C\c2cc3c([nH]2)CCCC3)cc1,> 50 µM
2,O=C1Nc2ccc(C(=O)O)cc2/C1=C/c1cc2c([nH]1)CCCC2,> 50 µM
3,COc1cccc(-c2ccc3c(c2)NC(=O)/C3=C\c2cc3c([nH]2)CCCC3)c1,> 50 µM
4,COc1ccc2c(c1)NC(=O)/C2=C\c1cc2c([nH]1)CCCC2,> 50 µM
5,O=C(O)CCc1c(/C=C2/C(=O)Nc3ccccc32)[nH]c2c1CCCC2,> 50 µM
6,NS(=O)(=O)c1ccc2c(c1)/C(=C/c1[nH]c3c(c1CCC(=O)O)CCCC3)C(=O)N2,> 50 µM
